Experimental findings from PubChem BioAssay (NCI) are described below.

Each structure is given as a SMILES string.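 Where inhibition never reached the appropriate level, the endpoint shown equals the highest concentration tested. Otherwise, values were interpolated linearly from a five-concentration, 48-hour dose response in 96-well plates. Here, GI50 denotes the concentration required for 50% inhibition of growth. TGI: concentration producing complete growth inhibition.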

Among the test systems are UACC-62 melanoma; NCI/ADR-RES ovarian; MCF7 breast; A498 renal; CAKI-1 renal; MOLT-4 leukemia; M14 melanoma; UACC-257 melanoma; SK-MEL-28 melanoma; HCC-2998 colon.
What all share (experiment): NCI-60 cell line screen, 48 h

On to `Cc1cc(-c2cc(O)ccc2Cl)cc2nnc(Nc3ccc(OCCN4CCCC4)cc3)nc12`, for which the GI50 was 1.7 µM in the experiment with UACC-62 melanoma; 0.682 µM in the experiment with NCI/ADR-RES ovarian; 0.179 µM in the experiment on MCF7 breast; 1.41 µM with A498 renal; 1.54 µM in the experiment with CAKI-1 renal; 0.251 µM in the experiment on MOLT-4 leukemia. For the same compound, the GI50 in the experiment on M14 melanoma was 0.326 µM; in the experiment on UACC-257 melanoma it was 1.96 µM; in the experiment with SK-MEL-28 melanoma, 0.292 µM; in the experiment with HCC-2998 colon, 1.94 µM. The TGI in the experiment on UACC-62 melanoma was 3.33 µM; in the experiment with NCI/ADR-RES ovarian, 1.61 µM; in the experiment with MCF7 breast, 0.356 µM; in the experiment with A498 renal, 2.92 µM; in the experiment with CAKI-1 renal, 2.97 µM; in the experiment with MOLT-4 leukemia, 0.634 µM. Moreover, the TGI in the experiment with M14 melanoma amounted to 1.19 µM; with UACC-257 melanoma, 3.91 µM; in the experiment on SK-MEL-28 melanoma, 0.843 µM; in the experiment with HCC-2998 colon, 3.66 µM.

With `CCCCCCCCCCCCOC1C(CNC(=O)C2OC3OC(C)(C)OC3C2NC(=O)CN2CCN(c3ccc(OC)cc3)CC2)OC2OC(C)(C)OC21` (centres undefined), the GI50 is 5.44 µM in the experiment on UACC-62 melanoma; 4.03 µM in the experiment with NCI/ADR-RES ovarian; 2.81 µM in the experiment with MCF7 breast; 7.96 µM in the experiment on A498 renal; 12.1 µM in the experiment with CAKI-1 renal; 3.12 µM in the experiment on MOLT-4 leukemia. In addition, the GI50 in the experiment on M14 melanoma was 4.73 µM; in the experiment with UACC-257 melanoma, 3.83 µM; in the experiment on SK-MEL-28 melanoma, 5.86 µM; with HCC-2998 colon it was 3.4 µM. In addition, the TGI is 18.3 µM in the experiment with UACC-62 melanoma; 16.1 µM with NCI/ADR-RES ovarian; 8.29 µM with MCF7 breast; 20.3 µM with A498 renal; 24.5 µM in the experiment on CAKI-1 renal; 10.8 µM with MOLT-4 leukemia. Moreover, the TGI came out at 18.9 µM in the experiment with M14 melanoma, 12.7 µM in the experiment with UACC-257 melanoma, 23.3 µM with SK-MEL-28 melanoma and 11 µM in the experiment on HCC-2998 colon.

On to `CCNC(=O)Oc1ccc(/C(=C(/C)Cc2ccc(OC)cc2)c2ccc(OCCN(CC)CC)cc2)cc1`, for which the GI50 with UACC-62 melanoma was 1.86 µM; in the experiment on NCI/ADR-RES ovarian, 2.99 µM; in the experiment with MCF7 breast, 0.621 µM; with A498 renal, 2.58 µM; with CAKI-1 renal, 1.64 µM; in the experiment with MOLT-4 leukemia it was 2.64 µM. Moreover, the GI50 with M14 melanoma is 1.72 µM; with UACC-257 melanoma, 1.79 µM; in the experiment with SK-MEL-28 melanoma it was 1.76 µM; in the experiment on HCC-2998 colon it was 1.7 µM. Moreover, the TGI in the experiment on UACC-62 melanoma amounted to 3.38 µM; in the experiment on NCI/ADR-RES ovarian it was 11.5 µM; with MCF7 breast it was 2.41 µM; in the experiment with A498 renal, 11.1 µM; with CAKI-1 renal it was 3.84 µM; in the experiment with MOLT-4 leukemia it was 9.71 µM. The TGI is 3.62 µM in the experiment on M14 melanoma, 3.42 µM in the experiment on UACC-257 melanoma, 3.53 µM in the experiment on SK-MEL-28 melanoma and 3.29 µM in the experiment with HCC-2998 colon.

Turning to `O=C(CCN1CCCCC1)N1CCc2c([nH]c3ccccc23)C1c1cccnc1` (centres undefined), the TGI in the experiment on UACC-62 melanoma was 42.2 µM; in the experiment on NCI/ADR-RES ovarian, > 100 µM; with MCF7 breast, > 100 µM; in the experiment on A498 renal, > 100 µM; with CAKI-1 renal, > 100 µM; with MOLT-4 leukemia it was > 100 µM. Moreover, the TGI in the experiment with M14 melanoma stood at 42.2 µM; with UACC-257 melanoma, 34.7 µM; in the experiment with SK-MEL-28 melanoma it was 37.2 µM; in the experiment with HCC-2998 colon, 54.8 µM.

Consider `C/C(=C(\c1ccc(OCCN2CCCCCC2)cc1)c1ccc(OC(=O)c2ccccc2)cc1)c1ccc(Cl)cc1`, for which the GI50 with UACC-62 melanoma was 5.1 µM; with NCI/ADR-RES ovarian, 4.56 µM; in the experiment with MCF7 breast, 0.348 µM; in the experiment on A498 renal, 3.79 µM; with CAKI-1 renal, 3.86 µM; in the experiment on MOLT-4 leukemia it was 2.25 µM. In addition, the GI50 in the experiment on M14 melanoma is 0.92 µM; in the experiment on UACC-257 melanoma, 5.34 µM; in the experiment on SK-MEL-28 melanoma, 4.33 µM; with HCC-2998 colon it was 2.36 µM. Moreover, the TGI stood at 11.1 µM with UACC-62 melanoma; 11.2 µM in the experiment with NCI/ADR-RES ovarian; 5.94 µM in the experiment on MCF7 breast; 8.09 µM with A498 renal; 9.27 µM with CAKI-1 renal; 10.9 µM in the experiment with MOLT-4 leukemia. Moreover, the TGI came to 3.33 µM in the experiment on M14 melanoma, 10.4 µM in the experiment on UACC-257 melanoma, 9.02 µM with SK-MEL-28 melanoma and 7.03 µM with HCC-2998 colon.

With `Cn1c2c(c3c(Cl)nncc31)Cc1ccccc1-2`, the GI50 in the experiment with UACC-62 melanoma was 13.9 µM; with NCI/ADR-RES ovarian, 16.3 µM; in the experiment with MCF7 breast it was 9.03 µM; with A498 renal, 11.4 µM; with CAKI-1 renal it was 16.9 µM; with MOLT-4 leukemia, 3.12 µM. The GI50 in the experiment with M14 melanoma is 28.1 µM; with UACC-257 melanoma it was 48.7 µM; in the experiment with SK-MEL-28 melanoma it was 30.2 µM; in the experiment with HCC-2998 colon it was 20.9 µM. Moreover, the TGI in the experiment on UACC-62 melanoma was 62 µM; with NCI/ADR-RES ovarian, 44.5 µM; with MCF7 breast, > 100 µM; in the experiment on A498 renal it was 34.5 µM; with CAKI-1 renal, 67.2 µM; in the experiment with M14 melanoma, > 100 µM. For the same compound, the TGI in the experiment on UACC-257 melanoma, with SK-MEL-28 melanoma and with HCC-2998 colon was > 100 µM in each case.

Regarding `Nc1ccccc1C(=O)CCC1C(=O)NC(=S)NC1=O`, the TGI in the experiment with UACC-62 melanoma, in the experiment with NCI/ADR-RES ovarian, with MCF7 breast, in the experiment on A498 renal, in the experiment with CAKI-1 renal and in the experiment on MOLT-4 leukemia was > 100 µM each time. Moreover, the TGI with M14 melanoma, with UACC-257 melanoma, with SK-MEL-28 melanoma and in the experiment with HCC-2998 colon was > 100 µM each time.

On to `CO[C@H]1CC(O[C@@H]2/C(C)=C/C[C@@H]3C[C@@H](C[C@]4(CC[C@H](C)[C@@H](C5CCCCC5)O4)O3)OC(=O)[C@@H]3C=C(C)/C(=N/O)[C@H]4OC/C(=C\C=C\[C@@H]2C)[C@]43O)O[C@@H](C)C1O` (some centres undefined), for which the GI50 was 0.786 µM with UACC-62 melanoma; 1.07 µM with NCI/ADR-RES ovarian; 0.972 µM in the experiment with MCF7 breast; 0.802 µM in the experiment on A498 renal; 1.14 µM in the experiment on CAKI-1 renal; 1.12 µM in the experiment on MOLT-4 leukemia. Further, the GI50 in the experiment on M14 melanoma was 1.5 µM; with UACC-257 melanoma, 0.987 µM; in the experiment on SK-MEL-28 melanoma, 0.952 µM; in the experiment on HCC-2998 colon, 0.831 µM. Moreover, the TGI came out at 1.54 µM in the experiment on UACC-62 melanoma; 2.9 µM in the experiment on NCI/ADR-RES ovarian; 2.46 µM with MCF7 breast; 1.95 µM in the experiment on A498 renal; 3.32 µM in the experiment with CAKI-1 renal; 2.53 µM in the experiment with MOLT-4 leukemia. The TGI with M14 melanoma amounted to 4.62 µM; in the experiment with UACC-257 melanoma it was 2.55 µM; in the experiment on SK-MEL-28 melanoma, 1.97 µM; in the experiment with HCC-2998 colon, 1.57 µM.
